Test results taken from patent US20250186452A1, “NOVEL USE OF QUINOLINE COMPOUND” (TARAPEUTICS SCIENCE INC., priority 2022, published 2025).

Assays:
RAW264.7 cells [1] = test: Cell transformation experiment: IL-10 secretion of M2-induced RAW264.7 cells (ELISA); format: cell-based, mouse
Procedure: (§1) RAW264.7 cells (purchased from ATCC, USA) were sucked up and down with a pipette, and the cells were added to a centrifuge tube, placed in a centrifuge, and centrifuged at 800 rpm for 4 minutes.

RAW264.7 cells [2] = test: Cell transformation experiment: CD86 RNA level in M2-induced RAW264.7 cells (qPCR); format: cell-based, mouse
Procedure: as §1
In this experiment, an RNA extraction kit (purchased from Tiangen Biochemical Technology, China, catalog number: DP451) was used. RNA extraction was performed according to the instructions, and the concentration of RNA in the sample was detected using a NanoDrop nucleic acid concentration meter, and the RNA solution was diluted to the same concentration.
In this experiment, TakaRa One Step TB Green® PrimeScript™ PLUS RT-PCR Kit (purchased from TaKaRa Bio, catalog number: RR096A) was used, which contained the following components:
The procedure was as follows: • (1) The PCR primers were taken out and placed on ice. The primer sequences used were as follows: […]
• (3) After the RT-PCR reaction reagents were prepared, they were mixed, and the mixture was dispensed into 8-Strip Tubes. 2 μL of RNA sample was added to the tube, the bottom of the tube was gently tapped to mix the solution, and the tube was centrifuged in a centrifuge for a while. • (4) The fluorescence quantitative PCR instrument was turned on. […] Roche analysis software LightCycler® 96 SW 1.1 was used to analyze the data, and the analyzed data was imported into Graphpad Prism7.0 for drawing.

4T1 cells = test: In vivo efficacy in 4T1 cell tumor transplantation mouse model; conditions: 4T1 model
Procedure: In this example, the experimental effects of Compound 2 and the control compound PLX3397 (purchased from MedChem Express, China) in MC38 and 4T1 mouse models were tested respectively.
The experimental procedure was as follows: • (1) C57BL/6J male mice for use as MC38 transplanted tumor model and Balb/c male mice for use as 4T1 transplanted tumor model, which were 6 weeks old, were purchased from GemPharmatech Co., Ltd, Jiangsu. All the above mice were raised in an SPF laboratory, and the drinking water and padding had been sterilized by high pressure sterilization. All operations related to mice were performed under sterile conditions. • (2) On day 0, approximately 1×10^6 MC38 cells (purchased from ATCC) were injected subcutaneously into the left back of each of the C57BL/6J mice, and approximately 1×10^6 4T1 cells (purchased from ATCC) were injected subcutaneously into the left back of each of the Balb/c mice. • (3) For the MC38 mouse model, starting from the 6th day, the corresponding mice were orally administered with methylcellulose (HKI) (purchased from China National Pharmaceutical Group Corporation) solvent once a day (5 mice); Compound 2 at a dose of 50 mg/kg mouse weight once a day (5 mice); PLX3397 at a dose of 50 mg/kg mouse weight once a day (5 mice). For the 4T1 mouse model, starting from the 6th day, the corresponding mice were orally administered with 10% HS-15 (purchased from BASF, Germany) solvent (5 mice); Compound 2 at a dose of 50 mg/kg mouse weight once a day (5 mice); PLX3397 at a dose of 50 mg/kg mouse weight once a day (5 mice). • (4) Starting from the 6th day, the length/width of the subcutaneous tumor was measured with a vernier caliper every day, and the weight of the mice was recorded every day to determine the effects of Compound 2 and control compound PLX3397 on the weight of mice in different model mice. The results are shown in FIGS. 3 and 6. • (5) The growth trends of subcutaneous tumors in mice of different models were statistically analyzed. The tumor volume was calculated using the following method: length×width×width/2 mm^3. The results are shown in FIGS. 4 and 7. • (6) Isolation of tumor-infiltrating lymphocytes: Tumor tissue was first minced (tissue block less than 1 mm^3) with a surgical blade, resuspended in 6 ml of digestion solution (collagenase IV and 0.005% DNaseI enzyme, both purchased from Sigma, USA), and the mixture was transferred to a 15-ml centrifuge tube. The centrifuge tube was then placed in a shaker at 37° C. and digested with shaking at 220 r/min for 2 hours. The cells were sieved through a 200-mesh sieve and collected in a 50-ml centrifuge tube, and centrifuged at 1500 rpm for 10 minutes. The supernatant was then discarded, and 10 ml of DMEM medium (10% FBS) (purchased from GIBCO, USA) was added to the tube to terminate the digestion. The tube was placed in a centrifuge, and centrifuged at 1500 rpm for another 10 minutes. The supernatant was discarded. At the same time, Percoll separation solution (purchased from Millipore, USA) was prepared, and 90% Percoll separation working solution was prepared using 10×PBS. To a 15 ml centrifuge tube, 3-4 ml of 70% Percoll separation solution was added. The cells were resuspended in 4 ml of 40% Percoll separation solution, and the cell mixture was added to the 70% Percoll separation solution. The centrifuge tube was placed in a centrifuge and subjected to density gradient centrifugation at 25° C., 1260 g, for 30 minutes (speed up 5, speed down 0). After the centrifugation, the centrifuge tube was placed on a centrifuge tube rack, the middle leukocyte layer was aspirated with a pipette, and added to 10 ml of PBS, they were mixed well and placed in a centrifuge, and centrifuged at 1500 rpm. The cell supernatant was discarded after 10 min and the cells were resuspended in 5 ml of PBS, centrifuged at 1500 rpm for another 10 min, and the washing process was repeated once. The cells obtained were leukocytes in the tumor tissue. […]

In the case of `COc1cc2nccc(Oc3ccc(NC(=O)Cc4ccc(Cl)c(C(F)(F)F)c4)cc3)c2cc1OC` [Example 2, N-(4-((6,7-dimethoxyquinolin-4-yl)oxy)phenyl)-2-(4-chloro-3-(trifluoromethyl)phenyl)-acetamide], the “effect on IL-10 secretion compared with positive controls” value (RAW264.7 cells [1]; 1 μM, same dose as PLX3397 and BLZ945, FIG. 1) is reported as “better for Compound 2 at 1 μM than positive controls PLX3397 and BLZ945”, the “level of IL-10 secretion in M2 macrophages” value (RAW264.7 cells [1]; RAW264.7 induced with IL-4 or IL-13, treated 72 hours, serial dilutions, FIG. 1) is reported as “decreased in a dose-dependent manner” and the “effect on CD86 RNA level compared with positive controls” value (RAW264.7 cells [2]; 1 μM, same dose as PLX3397 and BLZ945, FIG. 2) is reported as “better for Compound 2 at 1 μM than positive controls PLX3397 and BLZ945”. The “RNA level of CD86” value (RAW264.7 cells [2]; RAW264.7 induced to M2, treated 72 hours, serial dilutions, FIG. 2) was “increased in a dose-dependent manner”, the “toxicity (mouse body weight)” value (4T1 cells; 50 mg/kg oral once a day, FIG. 6) was “no obvious toxicity” and the “inhibition effect of mouse tumors” value (4T1 cells; 50 mg/kg oral once a day, FIG. 7) was “good inhibition effect of mouse tumors”. For the same compound, the “inhibitory effect on mouse tumors compared with PLX3397” value (4T1 cells; 50 mg/kg oral once a day, as days of administration increased) was “superior to the effect of the control compound PLX3397”, the “proportion of M1 macrophages around the tumor versus solvent group” value (4T1 cells; 50 mg/kg oral, flow cytometry, FIG. 8) was “much higher than that in the solvent group” and the “proportion of M1 macrophages in the tumor microenvironment versus PLX3397 group” value (4T1 cells; same dose 50 mg/kg, FIG. 8) was “higher than that of the PLX3397 group”.
